Measurements: patent US6479534B1, “Indoline derivatives and method of treating obesity” (priority 2000, dated 2002)
Where a name gives a salt, the structure may show the parent alone. Read-outs that look alike come from different tables or passages of the source.

Key:
5-HT2A receptor = target: T1, 5-HT2A receptor (Homo sapiens, UniProt P28223); assay: Radioligand binding to 5-HT2A receptor ([125I]-DOI, CHO cell line); conditions: read-out: Ki (2A)
T1 construct: expressed in transfected cells; host or cells: CHO cell line
Description: (§1) 1. Binding to Serotonin Receptors
(§2) The binding of compounds of formula (I) to serotonin receptors was determined in vitro by standard methods. The preparations were investigated in accordance with the assays given hereinafter.
Method (c): For the binding to the 5-HT2A receptor the 5-HT2A receptors were radiolabelled with [^125I]-DOI. The affinity of the compounds for 5-HT2A receptors in a CHO cell line was determined according to the procedure of D. J. McKenna and S. J. Peroutka, J. Neurosci., 1989, 9/10, 3482-90.

h5-HT2A receptors = target: T2, h5-HT2A receptors (Homo sapiens, UniProt P28223); assay: Functional activity, FLIPR calcium assay, CHO cells expressing h5-HT2A; type: cell-based; conditions: for h5-HT2A Relative Efficacy: maximum fluorescent signal relative to 10 μM 5-HT (defined as 100%)
T2 construct: expressed in transfected cells; host or cells: CHO cells
Description: (§3) The functional activity of compounds of formula (I) was assayed using a Fluorimetric Imaging Plate reader (FLIPR):
(§4) CHO cells expressing either the h5-HT2C or h5-HT2A receptors were counted and plated into standard 96 well microtitre plates before the day of testing to give a confluent monolayer. The following day the cells were dye-loaded with the calcium sensitive dye Fluo 3-AM by incubation with serum free culture maintenance media containing pluronic acid and Fluo 3-AM dissolved in DMSO at 37° C. in a CO2 incubator at 95% humidity for approximately 90 minutes. Unincorporated dye was removed by washing with Hanks balanced salt solution containing 20 mM HEPES and 2.5 mM probenecid (the assay buffer) using an automated cell washer to leave a total volume of 100 μl/well.
(§5) The drug (dissolved in 50 μL of assay buffer) was added at a rate of 70 μL/sec to each well of the FLIPR 96 well plate during fluorescence measurements. The measurements are taken at 1 sec intervals and the maximum fluorescent signal was measured (approx 10-15 secs after drug addition) and compared with the response produced by 10 μM 5-HT (defined as 100%) to which it is expressed as a percentage response (relative efficacy).Dose response curves were constructed using Graphpad Prism (Graph Software Inc.).

h5-HT2C receptors = target: T3, h5-HT2C receptors (Homo sapiens, UniProt P28335); assay: Functional activity, FLIPR calcium assay, CHO cells expressing h5-HT2C; type: cell-based; conditions: for h5-HT2C Relative Efficacy: maximum fluorescent signal relative to 10 μM 5-HT (defined as 100%)
T3 construct: expressed in transfected cells; host or cells: CHO cells
T3 sequence (P28335 33-458): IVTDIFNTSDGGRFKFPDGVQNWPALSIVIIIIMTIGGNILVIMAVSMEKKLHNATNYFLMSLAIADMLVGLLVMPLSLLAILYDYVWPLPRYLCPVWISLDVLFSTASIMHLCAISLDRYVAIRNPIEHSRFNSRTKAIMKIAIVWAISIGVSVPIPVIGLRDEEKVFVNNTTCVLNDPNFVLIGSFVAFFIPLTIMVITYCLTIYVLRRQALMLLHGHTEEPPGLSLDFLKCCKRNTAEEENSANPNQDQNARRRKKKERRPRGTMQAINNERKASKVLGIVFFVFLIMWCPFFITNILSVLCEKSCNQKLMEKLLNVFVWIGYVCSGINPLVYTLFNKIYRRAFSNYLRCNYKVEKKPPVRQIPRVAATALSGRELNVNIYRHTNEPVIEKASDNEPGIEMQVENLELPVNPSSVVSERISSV
Description: as §3, §4, §5

5-HT2C receptor = target: T4, 5-HT2C receptor (Homo sapiens, UniProt P28335); assay: Radioligand binding to 5-HT2C receptor ([3H]-5-HT, CHO cell line); conditions: read-out: Ki (2C)
T4 construct: expressed in transfected cells; host or cells: CHO cell line
T4 sequence (P28335 33-458): T3 sequence (P28335 33-458)
Description: as §1, §2
Method (a): For the binding to the 5-HT2C receptor the 5-HT2C receptors were radiolabelled with [^3H]-5-HT. The affinity of the compounds for 5-HT2C receptors in a CHO cell line was determined according to the procedure of D. Hoyer, G. Engel and H. O. Kalkman, European J. Pharmacol., 1985, 118, 13-23.

human 5-HT2B receptors = target: T5, human 5-HT2B receptors (Homo sapiens, UniProt P41595); assay: Radioligand binding to 5-HT2B receptor ([3H]-5-HT, CHO cell line)
T5 construct: expressed in transfected cells; host or cells: CHO cell line
Description: as §1, §2
Method (b): For the binding to the 5-HT2B receptor the 5-HT2B receptors were radiolabelled with [^3H]-5-HT. The affinity of the compounds for human 5-HT2B receptors in a CHO cell line was determined according to the procedure of K. Schmuck, C. Ullmer, P. Engels and H. Lubbert, FEBS Lett., 1994, 342, 85-90.

[1] = FLIPR, Fluo 3-AM, CHO cells, read-out: h5-HT2C EC50
[2] = [3H]-5-HT, human receptor, CHO cell line, read-out: Ki (2B)

T1 sequence (P28223 whole entry): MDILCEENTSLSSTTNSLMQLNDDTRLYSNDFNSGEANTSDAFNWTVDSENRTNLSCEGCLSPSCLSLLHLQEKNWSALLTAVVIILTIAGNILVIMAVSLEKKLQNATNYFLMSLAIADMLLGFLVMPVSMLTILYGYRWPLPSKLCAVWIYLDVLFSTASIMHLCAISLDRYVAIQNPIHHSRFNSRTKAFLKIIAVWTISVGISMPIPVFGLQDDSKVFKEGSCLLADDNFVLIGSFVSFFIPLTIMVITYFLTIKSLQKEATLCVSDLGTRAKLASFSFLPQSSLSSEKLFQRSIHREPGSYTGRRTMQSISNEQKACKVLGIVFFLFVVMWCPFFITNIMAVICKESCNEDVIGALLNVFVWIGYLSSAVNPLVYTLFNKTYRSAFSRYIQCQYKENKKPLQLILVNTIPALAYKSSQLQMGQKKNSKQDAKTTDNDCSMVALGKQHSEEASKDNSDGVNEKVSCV
T2 sequence (P28223 whole entry): as above
T5 sequence (P41595 whole entry): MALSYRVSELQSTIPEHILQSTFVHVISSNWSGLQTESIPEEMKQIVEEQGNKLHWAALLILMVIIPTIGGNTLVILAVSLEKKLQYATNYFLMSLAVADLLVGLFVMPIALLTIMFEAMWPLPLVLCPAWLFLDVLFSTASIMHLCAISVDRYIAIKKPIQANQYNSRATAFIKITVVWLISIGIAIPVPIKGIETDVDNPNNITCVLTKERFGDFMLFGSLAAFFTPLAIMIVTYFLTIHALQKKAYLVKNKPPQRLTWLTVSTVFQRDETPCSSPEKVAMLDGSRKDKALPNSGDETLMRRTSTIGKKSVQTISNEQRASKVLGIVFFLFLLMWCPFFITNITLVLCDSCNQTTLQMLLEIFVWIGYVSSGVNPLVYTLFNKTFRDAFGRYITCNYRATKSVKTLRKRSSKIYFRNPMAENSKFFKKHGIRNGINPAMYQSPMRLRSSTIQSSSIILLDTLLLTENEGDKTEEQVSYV

melting point | Compound | Ki (5-HT2A receptor) [nM] | h5-HT2A Relative Efficacy (h5-HT2A receptors) [%] | EC50 (h5-HT2C receptors; [1]) [nM] | Ki (5-HT2C receptor) [nM] | Ki (human 5-HT2B receptors; [2]) [nM] | EC50 (h5-HT2C receptors) [nM] | h5-HT2C Relative Efficacy (h5-HT2C receptors) [%] | Ki (human 5-HT2B receptors) [nM] | EC50 (h5-HT2A receptors; FLIPR, Fluo 3-AM, CHO cells) [nM]
172 °C (dec.) | NCCN1c2ccccc2[C@H]2CCC[C@H]21.O=C(O)/C=C/C(=O)O (racemic) | – | – | – | – | – | – | – | – | –
– | C[C@H](N)CN1c2cc(Cl)ccc2[C@@H]2CCC[C@@H]21 [Example 2, (2′S, 3aS, 8b5)-[1-[4-(6-Chloro-1,2,3,3a,4,8b-hexahydrocyclopent[b]indolyl)]-2-propylamine hydrochloride] | 726 | 7 | 585 | 133 | 302 | – | – | – | –
– | COc1cc2c(cc1F)C1CCCC1N2C[C@H](C)N (single isomer, unassigned; isomer i) [Example 19, (2′S)-1-[4-(7-Fluoro-1,2,3,3a,4,8b-hexahydro-6-methoxycyclopent[b]indolyl)]-2-propylamine isomer I 0.7 fumarate] | 1160 | 0 | – | 88 | – | 391 | 84 | 513 | –
– | C[C@H](N)CN1c2cc(Cl)c(F)cc2C2CCCC21 (single isomer, unassigned; isomer i) [Example 10, (2′S)-1-[4-(6-Chloro-7-fluoro-1,2,3,3a,4,8b-hexahydrocyclopent[b]indolyl)]-2-propylamine isomer I fumarate] | 983 | 20 | 737 | 164 | 109 | – | – | – | –
– | COc1c(F)ccc2c1C1CCCC1N2CC(C)N (mixture of isomers) [Example 20, (2′S)-[1-[4-(7-Fluoro-1,2,3,3a,4,8b-hexahydro-8-methoxycyclopent[b]indolyl)]-2-propylamine fumarate] | 481 | 17 | – | 318 | – | 464 | 62 | 367 | 5490
